Test results published in patent US20110218188A1, “SUBSTITUTED (PYRIDYL)-AZINYLAMINE DERIVATIVES AS FUNGICIDES” (priority 2008, published 2011).
Marks after values point to notes of the source that are not given here.

Assay: Measurement of logP values by HPLC on reversed phase columns (EEC directive 79/831 Annex V.A8)
Type: physicochemical
Settings: pH 2.3

logP | SMILES
2.25^[b] | CCN(C)C(=O)c1cccc(-c2ccnc(Nc3ccnc(Cl)c3)n2)n1 [Example A36]

Same assay, conditions: pH 2.7

SMILES | logP | chromatographic logP
O=C(NCCCN1CCCCCC1=O)c1cc(-c2ccnc(Nc3ccnc(Cl)c3)n2)ccn1 [Example A20] | 2.33 | 
CC(=O)N(c1ccsc1)c1ncnc(-c2ccnc(C(=O)N(C)CCC#N)c2)n1 [Example C29] | 1.78 | 
CCCCCCN(CCCCCC)C(=O)c1cc(-c2ncnc(Nc3cccc(Cl)c3)n2)ccn1 [B174] | 6.69 | 
CN(C)C(=O)c1cc(-c2ccnc(Nc3ccnc(Cl)c3)n2)ccn1 [Example A32] | 1.69 | 
CCCCCNC(=O)c1cc(-c2ncnc(Nc3cccc(Cl)c3)n2)ccn1 [B67] | 4.35 | 
C#CC(C)ON=C(C)c1cc(-c2ncnc(Nc3cccc(Cl)c3)n2)ccn1 (mixture of isomers) [B30] | 4.47 | 
CCON(CC)C(=O)c1cc(-c2ncnc(Nc3cccc(C(F)F)c3)n2)ccn1 [B414] | 2.88 | 
CN(C)C(=O)c1cc(-c2ncnc(Nc3cccc(OC(F)(F)C(F)F)c3)n2)ccn1 [Example B364] | 2.64 | 
CCN(CC)C(=O)c1cc(-c2ccnc(Nc3ccc(C(C)(C)C)s3)n2)ccn1 [Example A39, 4-{2-[(5-tert-butyl-2-thienyl)amino]pyrimidin-4-yl}-N,N-diethylpyridine-2-carboxamide] |  | 3.62
CO/N=C(\C)c1cc(-c2ncnc(Nc3cccc(Cl)c3)n2)ccn1 [Example B27, N-(3-chlorophenyl)-4-{2-[(1E)-N-methoxyethanimidoyl]pyridin-4-yl}-1,3,5-triazin-2-amine] |  | 4.23
O=C(c1cc(-c2ccnc(Nc3ccnc(Cl)c3)n2)ccn1)N1CCCC1 [Example A7] | 2.08 | 
CCN(C)C(=S)c1cc(-c2ncnc(Nc3cccc(OC(F)(F)F)c3)n2)ccn1 [Example B271] | 3.57 | 
O=C(NCCCCN1CCCC1=O)c1cc(-c2ncnc(Nc3cccc(Cl)c3)n2)ccn1 [B96] | 2.73 | 
COCCNC(=O)c1cc(-c2ncnc(Nc3cccc(SC)c3)n2)ccn1 [B214] | 2.92 | 
CC(C)C(=O)O/N=C(/N)c1cc(-c2ncnc(Nc3cccc(Cl)c3)n2)ccn1 [B107] | 3.69 | 
CCN(CC)C(=S)c1cc(-c2ncnc(Nc3cccc(F)c3)n2)ccn1 [Example B11] | 3.31 | 
CN(C)C(=O)c1cc(-c2ncnc(Nc3cccc(C(F)F)c3)n2)ccn1 [Example B288] | 2.17 | 
CCN(C)C(=O)c1cc(-c2ccnc(Nc3ccnc(C(F)(F)F)c3)n2)ccn1 [Example A18] | 2.22 | 
O=C(O)c1cc(-c2ncnc(Nc3ccsc3)n2)ccn1 [Example C28, 4-[4-(3-thienylamino)-1,3,5-triazin-2-yl]pyridine-2-carboxylic acid] |  | 1.62
CCN(C)C(=S)c1cc(-c2ncnc(Nc3cccc(C(F)(F)F)c3)n2)ccn1 [Example B257] | 3.41 | 
O=C(c1cc(Nc2nccc(-c3ccnc(C(=O)N4CCCC4)c3)n2)ccn1)N1CCCC1 [Example A8] | 1.37 | 
O=C(c1cc(Nc2nccc(-c3ccnc(C(=O)N4CCCCC4)c3)n2)ccn1)N1CCCCC1 [Example A6] | 1.63 | 
C=CCN(CC=C)C(=O)c1cc(-c2ncnc(Nc3cccc(Cl)c3)n2)ccn1 [Example B143] | 3.67 | 
CCCC(C)NC(=O)c1cc(-c2ncnc(Nc3cccc(SC)c3)n2)ccn1 (stereo not drawn) [B221] | 4.44 | 
CCN(CC)C(=S)c1cc(-c2ncnc(Nc3cccc(C(F)(F)F)c3)n2)ccn1 [Example B326] | 3.78 | 
COCCN(C)C(=O)c1cc(-c2ncnc(Nc3cccc(Cl)c3)n2)ccn1 [Example B172] | 2.57 | 
CN(C)C(=S)c1cc(-c2ncnc(Nc3cccc(C(F)F)c3)n2)ccn1 [B423] | 2.66 | 
C#CC(C)ON=C(CC)c1cc(-c2ncnc(Nc3cccc(Cl)c3)n2)ccn1 (mixture of isomers) [B42] | 4.87 | 
Cc1ccc(Nc2ncnc(-c3ccnc(C(=O)N(C)C)c3)n2)cc1Cl [Example B359] | 2.71 | 
CCN(CC)C(=O)c1cc(-c2ncnc(Nc3ccsc3)n2)ccn1 [Example C13] | 2.44 | 

More lines, now with the values ahead:

logP | chromatographic logP | SMILES
2.37 |  | COC(=O)c1cc(-c2ncnc(Nc3ccc(OC)c(F)c3)n2)ccn1 [B418]
2.86 |  | CCCN(C)C(=O)c1cc(-c2ncnc(Nc3cccc(OC(F)F)c3)n2)ccn1 [Example B299]
3.71 |  | CC(C)CN(C)C(=S)c1cc(-c2ncnc(Nc3ccc(F)c(C(F)F)c3)n2)ccn1 [Example B335]
1.99 |  | CN(CCC#N)C(=O)c1cc(-c2ncnc(Nc3cccc(C#N)c3)n2)ccn1 [Example B291]
2.43 |  | COC(=O)c1cc(-c2ncnc(Nc3ccc(F)c(OC)c3)n2)ccn1 [B416]
3.17 |  | COC(=O)c1cc(-c2ncnc(Nc3ccc(C)c(Cl)c3)n2)ccn1 [B419]
1.99 |  | CN(CC1CCCO1)C(=O)c1cc(-c2ccnc(Nc3ccnc(Cl)c3)n2)ccn1 (stereo not drawn) [Example A15]
3.33 |  | CN(CC1CC1)C(=O)c1cc(-c2ncnc(Nc3cccc(C(F)(F)F)c3)n2)ccn1 [Example B357]
3.31 |  | O=C(NC1CC1)c1cc(-c2ncnc(Nc3ccc(F)c(Cl)c3)n2)ccn1 [Example B192]
2.13 |  | CCN(C)C(=O)c1cc(-c2ncnc(Nc3ccsc3)n2)ccn1 [Example C17]
3.09 |  | CCN(CC1CCCO1)C(=O)c1cc(-c2ncnc(Nc3cccc(Cl)c3)n2)ccn1 (stereo not drawn) [Example B167]
2.61 |  | CCCN(C)C(=O)c1cc(-c2ncnc(Nc3cccc(OC)c3)n2)ccn1 [Example B274]
3.23 |  | CC1CCCN1C(=O)c1cc(-c2ncnc(Nc3cccc(Cl)c3)n2)ccn1 (stereo not drawn) [Example B152]
3.23 |  | CN(CC1CC1)C(=O)c1cc(-c2ncnc(Nc3ccc(F)c(Cl)c3)n2)ccn1 [Example B204]
2.45 |  | CCCN(C)C(=O)c1cc(-c2ncnc(Nc3ccsc3)n2)ccn1 [Example C14]
5 |  | CCCC(C)NC(=O)c1cc(-c2ncnc(Nc3ccc(C)c(Cl)c3)n2)ccn1 (stereo not drawn) [B235]
3.15 |  | COC(C)C(C)N(C)C(=O)c1cc(-c2ncnc(Nc3cccc(Cl)c3)n2)ccn1 (stereo not drawn) [Example B189]
4.04 |  | Cc1ccc(Nc2ncnc(-c3ccnc(C(=O)NC(C)C)c3)n2)cc1Cl [B230]
3.08 |  | COCCNC(=O)c1cc(-c2ncnc(Nc3ccc(F)c(Cl)c3)n2)ccn1 [B193]
4.04 |  | CCC(C)NC(=O)c1cc(-c2ncnc(Nc3cccc(Cl)c3)n2)ccn1 (stereo not drawn) [Example B94]
3.62 |  | CC(C)NC(=O)c1cc(-c2ncnc(Nc3cccc(Cl)c3)n2)ccn1 [Example B91]
2.17 |  | CCN(C)C(=O)c1cc(-c2ncnc(Nc3cccc(COC)c3)n2)ccn1 [Example B245]
2.6 |  | CCN(CC)C(=O)c1cc(-c2ncnc(Nc3ccc(F)cc3)n2)ccn1 [Example B15]
3.48 |  | COCCNC(=O)c1cc(-c2ncnc(Nc3ccc(C)c(Cl)c3)n2)ccn1 [Example B227]
2.94 |  | COCC(C1CC1)N(C)C(=O)c1cc(-c2ncnc(Nc3cccc(OC(F)F)c3)n2)ccn1 (stereo not drawn) [Example B303]
2.8 |  | CCN(C)C(=S)c1cc(-c2ncnc(Nc3ccc(F)cc3)n2)ccn1 [Example B23]
